From patent publication US8404677B2, “Kinase inhibitors” (Genosco, priority 2009, dated 2013)

Key:
[1] = target: T1, AURKA (Homo sapiens, UniProt O14965); test: In vitro kinase inhibition, Ambit Biosciences panel; type: binding; conditions: lower numbers indicate stronger activities
T1 construct: purchased Ambit Biosciences
Description: (§1) Up to 518 different kinases have been identified in humans. They act on small molecules such as lipids, carbohydrates, amino acids, and nucleotides. To determine the scope of inhibitory effects of a representative compound of Formula (I) on known kinases, Compound 6 was tested against 104 commercially available kinases (Ambit Biosciences™) in vitro. 104 kinases included ABL1(E255K)-phosphorylated, ABL1(T315I)-phosphorylated, ABL1-phosphorylated, ACVR1B, ADCK3, AKT1, AKT2, ALK, AURKA, AURKB, AXL, BMPR2, BRAF, BRAF(V600E), BTK, CDK11, CDK2, CDK3, CDK7, CDK9, CHEK1, CSF1R, CSNK1D, CSNK1G2, DCAMKL1, DYRK1B, EGFR, EGFR(L858R), EPHA2, ERBB2, ERBB4, ERK1, FAK, FGFR2, FGFR3, FLT1, FLT3, FLT4, GSK3B, IGF1R, IKK-α, IKK-β, INSR, JAK2(JH1domain-catalytic), JAK3(JH1domain-catalytic), JNK1, JNK2, JNK3, KIT, KIT(D816V), KIT(V559D,T670I), LKB1, LRRK2, LRRK2(G2019S), MAP3K4, MAPKAPK2, MARK3, MEK1, MEK2, MET, MKNK1, MKNK2, MLK1, MTOR, p38-alpha, p38-beta, PAK1, PAK2, PAK4, PCTK1, PDGFRA, PDGFRB, PDPK1, PIK3C2B, PIK3CA, PIK3CG, PIM1, PIM2, PIM3, PKAC-alpha, PLK1, PLK3, PLK4, PRKCE, PYK2, RAFT, RET, RIOK2, ROCK2, RSK2, SNARK, SRC, SRPK3, SYK, TAK1, TGFBR1, TIE2, TRKA, TSSK1B, TYK2(JH1domain-catalytic), ULK2, VEGFR2, YANK3 and ZAP70.
(§2) Inhibition activity of Compound 6 was reported as percent control where lower numbers indicate stronger activities. […] Conventionally, the percent control of less than 35 is deemed to be significant inhibition of kinase activity as the numeric value 35 is frequently used as a threshold.

[2] = target: T2, FLT3 (Homo sapiens, UniProt P36888); test: as above; type: binding; conditions: lower numbers indicate stronger activities
T2 construct: purchased Ambit Biosciences
Description: as §1, §2

[3] = target: T3, JAK2 (Homo sapiens, UniProt O60674); test: as above; type: binding; conditions: lower numbers indicate stronger activities
T3 construct: JAK2(JH1domain-catalytic), JAK3(JH1domain-catalytic); purchased Ambit Biosciences
Description: as §1, §2

[4] = target: T4, JNK2 (Homo sapiens, UniProt P45984); test: as above; type: binding; conditions: lower numbers indicate stronger activities
T4 construct: purchased Ambit Biosciences
Description: as §1, §2

[5] = target: T5, KIT(D816V) (Homo sapiens, UniProt P10721, D816V); test: as above; type: binding; conditions: lower numbers indicate stronger activities
T5 construct: purchased Ambit Biosciences
Description: as §1, §2

[6] = target: T6, LRRK2 (Homo sapiens, UniProt Q5S007); test: as above; type: binding; conditions: lower numbers indicate stronger activities
T6 construct: purchased Ambit Biosciences
Description: as §1, §2

[7] = target: T7, LRRK2(G2019S) (Homo sapiens, UniProt Q5S007, G2019S); test: as above; type: binding; conditions: lower numbers indicate stronger activities
T7 construct: purchased Ambit Biosciences
Description: as §1, §2

[8] = target: T8, PDGFRB (Homo sapiens, UniProt P09619); test: as above; type: binding; conditions: lower numbers indicate stronger activities
T8 construct: purchased Ambit Biosciences
Description: as §1, §2

[9] = target: T9, RET (Homo sapiens, UniProt P07949); test: as above; type: binding; conditions: lower numbers indicate stronger activities
T9 construct: purchased Ambit Biosciences
Description: as §1, §2

[10] = target: T10, SRPK3 (Homo sapiens, UniProt Q9UPE1); test: as above; type: binding; conditions: lower numbers indicate stronger activities
T10 construct: purchased Ambit Biosciences
Description: as §1, §2

[11] = tested on: CCRF-CEM; test: cells; type: cell-based; conditions: CCRF-CEM (Leukemia)
[12] = tested on: SR; test: cells; type: cell-based; conditions: SR (Leukemia)
[13] = tested on: HOP-92; test: cells; type: cell-based; conditions: HOP-92 (NSCLC)
[14] = tested on: COLO 205; test: cells; type: cell-based; conditions: COLO 205 (Colon Cancer)
[15] = tested on: KM12; test: cells; type: cell-based; conditions: KM12 (Colon Cancer)
[16] = tested on: SNB-75; test: cells; type: cell-based; conditions: SNB-75 (CNS Cancer)
[17] = tested on: UACC-257; test: cells; type: cell-based; conditions: UACC-257 (Melanoma)
[18] = tested on: 786-0; test: cells; type: cell-based; conditions: 786-0 (Renal Cancer)
[19] = tested on: SN12C; test: cells; type: cell-based; conditions: SN12C (Renal Cancer)
[20] = tested on: BT-549; test: cells; type: cell-based; conditions: BT-549 (Breast Cancer)
[21] = target: PYK2 (Homo sapiens, UniProt Q14289); test: In vitro kinase inhibition, Ambit Biosciences panel; type: binding; set-up: purchased Ambit Biosciences; conditions: lower numbers indicate stronger activities
Description: as §1
(§3) Inhibition activity of Compound 6 was reported as percent control where lower numbers indicate stronger activities. […]

[22] = target: SYK (Homo sapiens, UniProt P43405); test: as above; type: binding; set-up: purchased Ambit Biosciences; conditions: lower numbers indicate stronger activities
Description: as §1, §3

[23] = Homo sapiens, read-out: LC50 (the source's name)

T9 sequence (P07949 29-1114): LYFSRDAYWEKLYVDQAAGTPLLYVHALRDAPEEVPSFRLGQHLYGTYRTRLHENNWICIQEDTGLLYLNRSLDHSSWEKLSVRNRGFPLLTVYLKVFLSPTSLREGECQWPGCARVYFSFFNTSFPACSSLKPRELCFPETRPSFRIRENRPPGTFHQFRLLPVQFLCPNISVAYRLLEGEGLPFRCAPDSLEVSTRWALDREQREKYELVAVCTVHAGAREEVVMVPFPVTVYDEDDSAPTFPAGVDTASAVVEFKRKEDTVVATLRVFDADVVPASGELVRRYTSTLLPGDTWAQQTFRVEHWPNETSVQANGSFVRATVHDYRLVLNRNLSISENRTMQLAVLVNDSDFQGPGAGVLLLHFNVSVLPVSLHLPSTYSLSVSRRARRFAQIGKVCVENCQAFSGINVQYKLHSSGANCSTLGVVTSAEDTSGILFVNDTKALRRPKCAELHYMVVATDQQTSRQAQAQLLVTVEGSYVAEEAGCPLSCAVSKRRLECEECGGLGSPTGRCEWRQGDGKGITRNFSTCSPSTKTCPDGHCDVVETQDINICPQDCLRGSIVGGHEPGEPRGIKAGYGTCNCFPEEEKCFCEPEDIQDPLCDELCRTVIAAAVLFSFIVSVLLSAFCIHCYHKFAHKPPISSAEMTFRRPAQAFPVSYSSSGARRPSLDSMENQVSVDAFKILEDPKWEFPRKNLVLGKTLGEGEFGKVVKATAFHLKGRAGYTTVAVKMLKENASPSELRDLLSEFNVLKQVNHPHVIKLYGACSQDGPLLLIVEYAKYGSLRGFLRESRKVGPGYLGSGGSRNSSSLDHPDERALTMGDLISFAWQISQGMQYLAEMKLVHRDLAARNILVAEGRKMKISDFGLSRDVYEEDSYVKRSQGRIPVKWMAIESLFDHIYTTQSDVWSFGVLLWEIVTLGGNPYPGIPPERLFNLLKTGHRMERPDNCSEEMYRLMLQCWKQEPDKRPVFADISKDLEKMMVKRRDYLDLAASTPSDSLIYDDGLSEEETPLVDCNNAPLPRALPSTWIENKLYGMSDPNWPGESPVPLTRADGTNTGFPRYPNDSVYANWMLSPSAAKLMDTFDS
T7 sequence (Q5S007 whole entry G2019S): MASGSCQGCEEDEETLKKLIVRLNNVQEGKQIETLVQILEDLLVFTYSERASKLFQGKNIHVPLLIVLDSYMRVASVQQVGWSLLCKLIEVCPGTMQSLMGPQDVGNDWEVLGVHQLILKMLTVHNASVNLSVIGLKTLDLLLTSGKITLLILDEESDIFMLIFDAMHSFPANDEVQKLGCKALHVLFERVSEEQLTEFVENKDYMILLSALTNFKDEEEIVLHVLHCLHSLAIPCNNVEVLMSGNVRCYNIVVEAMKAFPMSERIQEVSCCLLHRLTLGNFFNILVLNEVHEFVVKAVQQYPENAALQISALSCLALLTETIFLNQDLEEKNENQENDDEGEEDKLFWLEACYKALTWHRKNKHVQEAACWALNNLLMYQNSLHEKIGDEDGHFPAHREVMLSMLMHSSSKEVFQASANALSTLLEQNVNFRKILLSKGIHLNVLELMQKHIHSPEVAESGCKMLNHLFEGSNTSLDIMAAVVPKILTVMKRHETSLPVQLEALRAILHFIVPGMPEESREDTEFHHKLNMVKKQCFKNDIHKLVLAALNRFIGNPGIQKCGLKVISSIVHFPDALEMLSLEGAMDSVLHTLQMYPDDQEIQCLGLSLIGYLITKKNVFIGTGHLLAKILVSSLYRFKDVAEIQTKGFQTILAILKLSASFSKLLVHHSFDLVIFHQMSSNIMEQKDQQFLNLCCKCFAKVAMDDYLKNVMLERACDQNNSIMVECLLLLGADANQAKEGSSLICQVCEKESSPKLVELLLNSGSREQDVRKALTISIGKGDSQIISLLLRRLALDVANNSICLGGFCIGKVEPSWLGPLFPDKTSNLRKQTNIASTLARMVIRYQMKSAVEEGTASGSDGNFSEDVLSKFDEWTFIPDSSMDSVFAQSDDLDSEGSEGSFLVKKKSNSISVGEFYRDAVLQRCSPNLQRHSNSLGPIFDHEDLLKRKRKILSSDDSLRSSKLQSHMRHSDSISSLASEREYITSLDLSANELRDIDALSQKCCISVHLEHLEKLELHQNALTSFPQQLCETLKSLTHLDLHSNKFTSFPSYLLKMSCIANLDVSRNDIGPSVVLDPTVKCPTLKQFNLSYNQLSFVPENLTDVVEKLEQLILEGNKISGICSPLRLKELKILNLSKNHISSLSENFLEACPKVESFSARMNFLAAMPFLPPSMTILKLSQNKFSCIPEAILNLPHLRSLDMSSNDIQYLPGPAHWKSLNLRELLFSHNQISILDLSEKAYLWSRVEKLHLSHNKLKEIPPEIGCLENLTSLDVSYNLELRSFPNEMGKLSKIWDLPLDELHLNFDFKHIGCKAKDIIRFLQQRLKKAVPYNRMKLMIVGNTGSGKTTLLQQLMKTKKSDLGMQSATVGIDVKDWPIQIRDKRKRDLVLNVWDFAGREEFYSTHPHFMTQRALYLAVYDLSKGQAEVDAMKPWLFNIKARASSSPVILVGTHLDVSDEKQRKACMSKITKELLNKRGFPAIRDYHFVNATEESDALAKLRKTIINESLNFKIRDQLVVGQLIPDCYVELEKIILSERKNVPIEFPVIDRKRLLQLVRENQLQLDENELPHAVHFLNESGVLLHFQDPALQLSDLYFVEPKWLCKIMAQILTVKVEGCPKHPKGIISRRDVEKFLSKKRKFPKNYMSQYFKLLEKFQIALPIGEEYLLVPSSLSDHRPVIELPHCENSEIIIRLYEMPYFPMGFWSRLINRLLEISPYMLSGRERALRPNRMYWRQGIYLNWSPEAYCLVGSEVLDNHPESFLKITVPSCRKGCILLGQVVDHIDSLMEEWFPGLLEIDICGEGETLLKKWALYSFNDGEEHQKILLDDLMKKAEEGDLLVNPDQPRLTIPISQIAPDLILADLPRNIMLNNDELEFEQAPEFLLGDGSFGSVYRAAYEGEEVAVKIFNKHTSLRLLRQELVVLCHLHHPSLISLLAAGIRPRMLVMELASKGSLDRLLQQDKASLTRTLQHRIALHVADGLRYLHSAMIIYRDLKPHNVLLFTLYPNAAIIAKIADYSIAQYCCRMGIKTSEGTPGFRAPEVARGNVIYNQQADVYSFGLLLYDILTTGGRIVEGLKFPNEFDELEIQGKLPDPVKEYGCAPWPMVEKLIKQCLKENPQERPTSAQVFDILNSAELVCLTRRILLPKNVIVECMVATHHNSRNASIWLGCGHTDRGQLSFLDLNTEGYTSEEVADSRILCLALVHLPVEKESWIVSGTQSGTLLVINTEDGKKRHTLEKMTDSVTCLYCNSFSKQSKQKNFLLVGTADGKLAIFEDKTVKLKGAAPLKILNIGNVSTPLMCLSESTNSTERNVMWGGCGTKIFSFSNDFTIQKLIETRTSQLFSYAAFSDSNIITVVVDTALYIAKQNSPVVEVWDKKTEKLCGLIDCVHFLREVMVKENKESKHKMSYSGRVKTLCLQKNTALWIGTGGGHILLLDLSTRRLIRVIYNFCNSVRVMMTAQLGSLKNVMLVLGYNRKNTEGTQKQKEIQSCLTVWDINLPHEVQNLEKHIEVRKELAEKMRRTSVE
T10 sequence (Q9UPE1 whole entry): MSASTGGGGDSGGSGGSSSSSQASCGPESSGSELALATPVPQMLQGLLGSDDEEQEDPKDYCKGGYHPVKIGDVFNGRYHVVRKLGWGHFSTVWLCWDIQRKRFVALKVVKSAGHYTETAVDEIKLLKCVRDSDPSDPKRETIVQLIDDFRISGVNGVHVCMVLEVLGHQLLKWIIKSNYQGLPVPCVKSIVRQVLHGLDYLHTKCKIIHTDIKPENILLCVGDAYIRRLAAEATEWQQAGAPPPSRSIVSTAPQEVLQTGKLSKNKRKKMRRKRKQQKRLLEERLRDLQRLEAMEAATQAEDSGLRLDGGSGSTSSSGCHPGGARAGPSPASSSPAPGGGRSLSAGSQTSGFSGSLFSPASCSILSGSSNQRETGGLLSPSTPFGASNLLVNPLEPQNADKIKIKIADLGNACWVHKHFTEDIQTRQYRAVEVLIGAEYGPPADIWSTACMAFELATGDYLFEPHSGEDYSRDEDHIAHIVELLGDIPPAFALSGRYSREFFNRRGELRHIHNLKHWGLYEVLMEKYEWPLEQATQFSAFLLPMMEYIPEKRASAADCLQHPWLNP
T3 sequence (O60674 849-1124 limits assumed): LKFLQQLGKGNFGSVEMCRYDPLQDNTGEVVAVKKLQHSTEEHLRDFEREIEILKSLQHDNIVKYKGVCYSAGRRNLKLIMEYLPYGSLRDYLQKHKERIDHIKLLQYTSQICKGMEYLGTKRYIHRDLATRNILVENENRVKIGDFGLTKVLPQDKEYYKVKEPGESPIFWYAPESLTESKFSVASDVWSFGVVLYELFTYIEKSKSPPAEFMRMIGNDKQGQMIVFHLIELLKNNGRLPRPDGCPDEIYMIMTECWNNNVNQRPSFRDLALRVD
T1 sequence (O14965 whole entry): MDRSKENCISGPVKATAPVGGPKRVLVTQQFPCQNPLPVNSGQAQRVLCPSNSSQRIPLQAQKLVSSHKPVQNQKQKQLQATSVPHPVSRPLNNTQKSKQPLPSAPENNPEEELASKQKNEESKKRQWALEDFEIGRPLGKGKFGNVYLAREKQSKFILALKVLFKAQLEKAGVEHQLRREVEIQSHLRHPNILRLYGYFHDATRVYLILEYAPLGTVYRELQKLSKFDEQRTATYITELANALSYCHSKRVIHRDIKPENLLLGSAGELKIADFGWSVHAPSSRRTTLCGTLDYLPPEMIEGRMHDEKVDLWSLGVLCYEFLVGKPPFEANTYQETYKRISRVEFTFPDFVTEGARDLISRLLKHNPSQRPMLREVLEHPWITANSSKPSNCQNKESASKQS
T6 sequence (Q5S007 whole entry): as the sequence (Q5S007 whole entry G2019S) above, with S2019G counted along it

For `O=c1[nH]ccc2nc(N3CCC(O)CC3)nc(Nc3cccc(C(F)(F)F)c3)c12` [Compound 6, 2-(4-hydroxypiperidin-1-yl)-4-(3-(trifluoromethyl)phenylamino)pyrido[4,3-d]pyrimidine-5(6H)-one], the “% inhibition (reported as percent control)” value [1] was 31%, the “% inhibition (reported as percent control)” value [2] was 28% and the “% inhibition (reported as percent control)” value [3] was 3%. The “% inhibition (reported as percent control)” value [4] was 25%, the “% inhibition (reported as percent control)” value [5] was 9.3% and the “% inhibition (reported as percent control)” value [6] was 2.2%. For the same compound, the “% inhibition (reported as percent control)” value [7] was 2.2%, the “% inhibition (reported as percent control)” value [8] was 19% and the “% inhibition (reported as percent control)” value [9] was 16%. The “% inhibition (reported as percent control)” value [10] was 2.6%, the TGI [11] was 100 µM and the GI50 ([11]; Homo sapiens) was 2.09 µM. The IC50 ([11]; Homo sapiens) was 4.07 µM, the LC50 ([11]; Homo sapiens) was 100 µM and the GI50 ([12]; Homo sapiens) was 0.708 µM. The IC50 ([12]; Homo sapiens) was 2.51 µM, the CC50 [12, 23] was 100 µM and the TGI [12] was 26.9 µM. It also gave a TGI [13] of 100 µM, a GI50 ([13]; Homo sapiens) of 100 µM and an IC50 ([13]; Homo sapiens) of no less than 100 µM. For the same compound, the CC50 [13, 23] was 100 µM, the TGI [14] was 14.5 µM and the GI50 ([14]; Homo sapiens) was 3.09 µM. The IC50 ([14]; Homo sapiens) was 5.25 µM, the CC50 [14, 23] was 45.7 µM and the GI50 ([15]; Homo sapiens) was 1.45 µM. It also gave an IC50 ([15]; Homo sapiens) of 2.69 µM, a CC50 [15, 23] of 24 µM and a TGI [15] of 5.37 µM. For the same compound, the GI50 ([16]; Homo sapiens) was 5.75 µM, the IC50 ([16]; Homo sapiens) was 77.6 µM and the CC50 [16, 23] was 100 µM. It also gave a TGI [16] of 81.3 µM, a GI50 ([17]; Homo sapiens) of 4.27 µM and an IC50 ([17]; Homo sapiens) of 8.71 µM. It also gave a CC50 [17, 23] of 45.7 µM, a TGI [17] of 12.9 µM and a TGI [18] of 100 µM. The GI50 ([18]; Homo sapiens) was 2.04 µM, the IC50 ([18]; Homo sapiens) was 8.13 µM and the CC50 [18, 23] was 100 µM. The GI50 ([19]; Homo sapiens) was 4.07 µM, the IC50 ([19]; Homo sapiens) was 12.9 µM and the CC50 [19, 23] was 100 µM. It also gave a TGI [19] of 100 µM, a TGI [20] of 4.37 µM and a GI50 ([20]; Homo sapiens) of 1.58 µM. For the same compound, the IC50 ([20]; Homo sapiens) was 4.57 µM, the CC50 [20, 23] was 14.1 µM and the “% inhibition (reported as percent control)” value [21] was 32%. The “% inhibition (reported as percent control)” value [22] was 8.4%.
